Test system: TCG codon, mammalian cells
Experiment: TCG codon recoding efficiency of all amino acids (Table 1)
Assay type: cell-based
Details: TCG codon recoding of the unnatural amino acid with the aaRS and mutation of the same table line; class symbols
Excerpt: Specific details are shown in Table 1 below, where “wt” represents the wild-type aminoacyl-tRNA synthetase, “mutation sites” indicate the positions and types of mutations related to specific unnatural amino acid binding on the wild-type aminoacyl-tRNA synthetase, and “unnatural amino acid” represents the unnatural amino acid corresponding to the mutated aminoacyl-tRNA synthetase. In the unnatural amino acid encoding efficiency, “+” indicates a recoding efficiency greater than 40%, “++” greater than 60%, and “+++” greater than 80%.
Accordingly, this application compiles all amino acids reported in the literature that are recognized by orthogonal aminoacyl-tRNA synthetases in mammalian systems and evaluates their recoding efficiency using the TCG codon as an example.

SMILES	Recoding rate (%)
CC(OC(=O)CC(N)C(=O)O)c1ccccc1[N+](=O)[O-] (mixture of isomers) [compound 262]	++ (“++” greater than 60%)
CC(SCC(N)C(=O)O)c1cc2c(cc1[N+](=O)[O-])OCO2 (mixture of isomers) [compound 269]	+ (“+” indicates a recoding efficiency greater than 40%)
CC(OC(=O)NCSCC(N)C(=O)O)c1cc2c(cc1[N+](=O)[O-])OCO2 (mixture of isomers) [compound 270]	+ (“+” indicates a recoding efficiency greater than 40%)
CC(OC(=O)NCSCCC(N)C(=O)O)c1cc2c(cc1[N+](=O)[O-])OCO2 (mixture of isomers) [compound 271]	+ (“+” indicates a recoding efficiency greater than 40%)
CC([Se]CC(N)C(=O)O)c1cc2c(cc1[N+](=O)[O-])OCO2 (mixture of isomers) [compound 275]	+ (“+” indicates a recoding efficiency greater than 40%)
CC(SCCOC(=O)NCC(N)C(=O)O)c1cc2c(cc1[N+](=O)[O-])OCO2 (mixture of isomers) [compound 276]	+ (“+” indicates a recoding efficiency greater than 40%)
N[C@@H](Cc1ccc2ncccc2c1)C(=O)O [compound 230]	+ (“+” indicates a recoding efficiency greater than 40%)
N[C@@H](Cc1ccc(Oc2ccc(O)cc2)cc1)C(=O)O [compound 231]	++ (“++” greater than 60%)
N[C@@H](Cc1ccc(OCC2CCCC2)cc1)C(=O)O [compound 238]	++ (“++” greater than 60%)
CC#CCOc1ccc(C[C@H](N)C(=O)O)cc1 [compound 239]	++ (“++” greater than 60%)
C=CCCOc1ccc(C[C@H](N)C(=O)O)cc1 [compound 242]	++ (“++” greater than 60%)
C=CCCCOc1ccc(C[C@H](N)C(=O)O)cc1 [compound 243]	++ (“++” greater than 60%)
N[C@@H](Cc1ccc2c(c1)OCO2)C(=O)O [compound 248]	+ (“+” indicates a recoding efficiency greater than 40%)
N[C@@H](Cc1ccc2ccccc2c1)C(=O)O [compound 249]	+ (“+” indicates a recoding efficiency greater than 40%)
N[C@@H](Cc1cn(Cc2ccccc2[N+](=O)[O-])cn1)C(=O)O [compound 254]	++ (“++” greater than 60%)
N[C@@H](CCC(=O)OCc1ccccc1[N+](=O)[O-])C(=O)O [compound 263]	+ (“+” indicates a recoding efficiency greater than 40%)
N[C@@H](CCC(=O)OCc1cc2c(cc1[N+](=O)[O-])OCO2)C(=O)O [compound 264]	++ (“++” greater than 60%)
N[C@@H](CCC(=O)OCc1ccccc1)C(=O)O [compound 265]	++ (“++” greater than 60%)
N[C@@H](CC(=O)SCCNC(=O)OC1CCCC1)C(=O)O [compound 267]	++ (“++” greater than 60%)
N[C@@H](CSCc1ccccc1[N+](=O)[O-])C(=O)O [compound 268]	+ (“+” indicates a recoding efficiency greater than 40%)
C=CC[Se]C[C@H](N)C(=O)O [compound 272]	+ (“+” indicates a recoding efficiency greater than 40%)
C#CCSC[C@H](N)C(=O)O [compound 273]	+ (“+” indicates a recoding efficiency greater than 40%)
N[C@@H](CCSCNC(=O)Cc1ccccc1)C(=O)O [compound 274]	++ (“++” greater than 60%)
CN(C)c1ccc(-c2oc(N)nc2C(=O)O)cc1 [compound 279]	++ (“++” greater than 60%)
C=CCSC[C@H](N)C(=O)O [compound 280]	+ (“+” indicates a recoding efficiency greater than 40%)
N[C@@H](Cc1c[nH]c2c3c(ccc12)OCC3)C(=O)O [compound 285]	++ (“++” greater than 60%)
N[C@@H](Cc1ccc(OS(=O)(=O)F)cc1)C(=O)O [compound 287]	+++ (“+++” greater than 80%)
CN(C)c1cccc(C[C@H](N)C(=O)O)c1 [compound 288]	+++ (“+++” greater than 80%)
N[C@@H](Cc1cccc(N2CCCC2)c1)C(=O)O [compound 289]	++ (“++” greater than 60%)

Same assay, conditions: TCG codon recoding of the unnatural amino acid with the aaRS and mutation of the same table line; numeric values

SMILES	Recoding rate (%)
N[C@@H](Cc1cccc(F)c1F)C(=O)O [compound 228]	80? %
N[C@@H](Cc1cc(F)c(F)cc1F)C(=O)O [compound 229]	83%
N[C@@H](Cc1ccccc1[N+](=O)[O-])C(=O)O [compound 232]	72%
N[C@@H](Cc1cccc(C(F)(F)F)c1)C(=O)O [compound 234]	81%
N#Cc1cccc(C[C@H](N)C(=O)O)c1 [compound 235]	74%
N[C@@H](Cc1cccc([N+](=O)[O-])c1)C(=O)O [compound 237]	85%
N[C@@H](Cc1ccc(OCc2ccccc2)cc1)C(=O)O [compound 240]	46%
C=CCOc1ccc(C[C@H](N)C(=O)O)cc1 [compound 241]	83%
CC(C)(C)Oc1ccc(C[C@H](N)C(=O)O)cc1 [compound 244]	72%
N[C@@H](Cc1cc(Br)ccc1Cl)C(=O)O [compound 245]	75%
N[C@@H](Cc1cc(Cl)ccc1Cl)C(=O)O [compound 246]	84%
N[C@@H](Cc1cccnc1)C(=O)O [compound 247]	83%
N[C@@H](Cc1c[nH]c2c(F)cccc12)C(=O)O [compound 250]	74%
N[C@@H](Cc1c[nH]c2ncccc12)C(=O)O [compound 251]	22%
N[C@@H](Cc1csc2ccccc12)C(=O)O [compound 252]	89%
Cn1cncc1C[C@H](N)C(=O)O [compound 253]	85%

SMILES	Recoding rate (%)
N[C@@H](Cc1ccsc1)C(=O)O [compound 256]	64%
N[C@@H](Cc1cncs1)C(=O)O [compound 257]	91%
N[C@@H](Cc1cccs1)C(=O)O [compound 258]	72%
N[C@@H](Cc1ccc(Br)s1)C(=O)O [compound 259]	87%
N[C@@H](Cc1ccco1)C(=O)O [compound 260]	43%
N[C@@H](CC(=O)OCc1ccccc1[N+](=O)[O-])C(=O)O [compound 261]	23%
N[C@@H](CC(=O)OCc1ccccc1)C(=O)O [compound 266]	75%
N[C@@H](Cc1ccc2c(c1)C(=O)C1C=CC=CC1N2)C(=O)O (stereo partly drawn) [compound 277]	63%
CCCSC(=O)CCC(=O)NCCCC[C@H](N)C(=O)O [compound 283]	55%
CCCSC(=O)CCCC(=O)NCCCC[C@H](N)C(=O)O [compound 284]	57%
N[C@@H](Cc1cccc(I)c1)C(=O)O [compound 286]	61%
Cc1ccc2c(C[C@H](N)C(=O)O)c[nH]c2c1 [compound 290]	76%
N[C@@H](Cc1c[nH]c2cc(Cl)ccc12)C(=O)O [compound 291]	73%
N[C@@H](Cc1c[nH]c2cc(Br)ccc12)C(=O)O [compound 292]	73%
N#Cc1ccc2c(C[C@H](N)C(=O)O)c[nH]c2c1 [compound 293]	84%

— patent US20250327074A1 (SHAOXING INSTITUTE, ZHEJIANG UNIVERSITY, priority 2024, published 2025)
